Data on 2 compounds can be found in US20100093661A1, “COMPOSITION COMPRISING CHITOSAN AND AN ACIDIC DRUG FOR ORAL CONTROLLED RELEASE” (The Jordanian Pharmaceutical Manufacturing Co., priority 2007, published 2010).

The nature of data set [1]: Water solubility. It counts as physicochemical.
For data set [2] the following is noted: single 200-mg oral dose, fasting subjects; cited from earlier work.

As to `CC(=O)O.CC(C)Cc1ccc(C(C)C(=O)O)cc1` (centres unmarked) [Ibuprofen ethanoate], the water solubility result in data set [1] is “water insoluble”.

As to `CC(C)Cc1ccc(C(C)C(=O)O)cc1` (centres unmarked) [Ibuprofen], the “time of peak plasma levels after administration” value in data set [2] is “about 1 hr”.
